ChEMBL document CHEMBL1201862, “PubChem BioAssay data set” (2004)
Active and inactive are the calls of the source.

How the values were obtained:
[1] = target: Long-chain-fatty-acid--AMP ligase FadD28 (Mycobacterium tuberculosis, UniProt P9WQ59); test: Fluorescence polarization aasay to screen for inhibitors that compete for the binding of FadD28 to a bisubstrate Measured in Biochemical System Using Plate Reader - 2147-01_Inhibitor_Dose_CherryPick_Activity.; assay type: functional, Mycobacterium tuberculosis H37Rv
Chain of Long-chain-fatty-acid--AMP ligase FadD28 (P9WQ59 whole entry): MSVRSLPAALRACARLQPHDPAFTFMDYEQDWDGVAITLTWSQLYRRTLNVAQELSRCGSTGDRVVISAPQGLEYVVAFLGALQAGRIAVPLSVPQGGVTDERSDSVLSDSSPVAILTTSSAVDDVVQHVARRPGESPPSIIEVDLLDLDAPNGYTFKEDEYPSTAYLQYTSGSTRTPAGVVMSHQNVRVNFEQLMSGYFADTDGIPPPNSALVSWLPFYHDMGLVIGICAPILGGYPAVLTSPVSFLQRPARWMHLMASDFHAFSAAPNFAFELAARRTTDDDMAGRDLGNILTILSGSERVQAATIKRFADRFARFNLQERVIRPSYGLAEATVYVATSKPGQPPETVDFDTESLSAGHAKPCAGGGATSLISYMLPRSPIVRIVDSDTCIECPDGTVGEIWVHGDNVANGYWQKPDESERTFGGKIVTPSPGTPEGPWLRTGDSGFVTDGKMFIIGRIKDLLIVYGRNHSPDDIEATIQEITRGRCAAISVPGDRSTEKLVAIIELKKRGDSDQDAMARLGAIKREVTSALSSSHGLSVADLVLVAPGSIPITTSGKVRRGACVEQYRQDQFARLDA

Cytochrome P450 3A4 = Cytochrome P450 3A4 (Homo sapiens, UniProt P08684);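 also: CYP3A4 tested as one member of a cytochrome P450 panel screen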
[2] = target: Induced myeloid leukemia cell differentiation protein Mcl-1 (Homo sapiens, UniProt Q07820); assay type: functional
Chain of Induced myeloid leukemia cell differentiation protein Mcl-1 (Q07820 whole entry): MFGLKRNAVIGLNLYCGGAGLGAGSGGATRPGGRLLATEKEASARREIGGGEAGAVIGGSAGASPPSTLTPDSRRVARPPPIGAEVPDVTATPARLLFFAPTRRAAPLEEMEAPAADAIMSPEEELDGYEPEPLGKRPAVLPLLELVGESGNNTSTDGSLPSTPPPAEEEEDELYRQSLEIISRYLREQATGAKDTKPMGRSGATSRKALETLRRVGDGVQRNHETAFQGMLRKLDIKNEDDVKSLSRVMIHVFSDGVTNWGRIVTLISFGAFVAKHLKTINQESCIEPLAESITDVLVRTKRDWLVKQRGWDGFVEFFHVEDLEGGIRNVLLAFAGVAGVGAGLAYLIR

[3] = target: T1, Probable nicotinate-nucleotide adenylyltransferase (Staphylococcus aureus (strain N315), UniProt P65502); assay type: functional, Staphylococcus aureus subsp. aureus N315;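 as to IC50 Mean: confirmatory dose-response retesting of NadD inhibitor hits first found in an ultra-high-throughput screen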
T1 sequence (P65502 whole entry): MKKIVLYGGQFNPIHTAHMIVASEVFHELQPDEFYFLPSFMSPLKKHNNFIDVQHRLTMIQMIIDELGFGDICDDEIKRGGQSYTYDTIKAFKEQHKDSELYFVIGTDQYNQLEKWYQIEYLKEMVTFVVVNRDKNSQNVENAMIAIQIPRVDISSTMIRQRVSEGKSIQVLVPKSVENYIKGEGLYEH

[4] = target: T1, Probable nicotinate-nucleotide adenylyltransferase; assay type: functional, Staphylococcus aureus subsp. aureus N315; conditions: read-out: IC50_Mean
[5] = target: Voltage-dependent T-type calcium channel subunit alpha-1H (Homo sapiens, UniProt O95180); assay type: functional;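 also: channel activity triggered by adding a high calcium stimulation buffer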
[6] = target: T2, Beta-2 adrenergic receptor (Homo sapiens, UniProt P07550); test: ADRB2 activation measured by internalization – cell-based, FAP fluorogen, flow cytometry, cherry pick 1, dose response (AID 588763); assay type: functional
T2 sequence (P07550 whole entry): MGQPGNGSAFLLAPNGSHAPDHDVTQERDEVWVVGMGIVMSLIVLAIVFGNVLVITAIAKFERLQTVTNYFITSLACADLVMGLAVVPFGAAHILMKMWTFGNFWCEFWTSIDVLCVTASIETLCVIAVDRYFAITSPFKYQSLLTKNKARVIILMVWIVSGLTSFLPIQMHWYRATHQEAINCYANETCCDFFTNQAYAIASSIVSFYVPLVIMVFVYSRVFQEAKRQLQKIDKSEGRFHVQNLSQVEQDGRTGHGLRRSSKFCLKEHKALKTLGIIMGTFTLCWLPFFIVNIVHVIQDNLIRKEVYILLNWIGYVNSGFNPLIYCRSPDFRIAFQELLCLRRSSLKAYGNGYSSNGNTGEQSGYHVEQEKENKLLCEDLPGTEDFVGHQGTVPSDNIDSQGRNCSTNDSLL

[7] = target: T2, Beta-2 adrenergic receptor; test: Dose response for HTS for Beta-2AR agonists via FAP method from Powderset3.; assay type: functional
Beta-lactamase [8] = target: Beta-lactamase (Pseudomonas aeruginosa, UniProt Q79MP6);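 also: biochemical dose-response test of metallo-beta-lactamase enzyme inhibition, read out by epi-absorbance; purified recombinant IMP-1 metallo-beta-lactamase with nitrocefin as substrate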
Chain of Beta-lactamase (Pseudomonas aeruginosa, UniProt Q79MP6) (Q79MP6 whole entry): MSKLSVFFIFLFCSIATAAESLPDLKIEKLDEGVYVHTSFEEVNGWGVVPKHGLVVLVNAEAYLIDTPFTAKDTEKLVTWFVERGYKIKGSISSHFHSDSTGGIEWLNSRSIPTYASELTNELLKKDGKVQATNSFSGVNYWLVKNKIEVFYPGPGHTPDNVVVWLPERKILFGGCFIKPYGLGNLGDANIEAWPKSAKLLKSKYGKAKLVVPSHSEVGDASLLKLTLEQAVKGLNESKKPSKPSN

Beta-lactamase [9] = target: Beta-lactamase (Salmonella choleraesuis (strain SC-B67), UniProt Q5J463)
Chain of Beta-lactamase (Salmonella choleraesuis (strain SC-B67), UniProt Q5J463) (Q5J463 whole entry): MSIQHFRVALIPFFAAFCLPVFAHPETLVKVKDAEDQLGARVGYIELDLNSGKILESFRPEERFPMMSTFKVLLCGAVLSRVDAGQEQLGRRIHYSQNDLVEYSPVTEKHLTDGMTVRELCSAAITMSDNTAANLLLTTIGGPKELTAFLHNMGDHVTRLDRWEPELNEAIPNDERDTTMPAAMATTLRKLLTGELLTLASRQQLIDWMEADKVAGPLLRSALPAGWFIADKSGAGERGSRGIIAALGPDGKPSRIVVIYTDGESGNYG

Insulin-degrading enzyme [10] = target: T3, Insulin-degrading enzyme (Homo sapiens, UniProt P14735); test: recombinant IDE activation, cell-free – biochemical, fluorescence polarization, counter-screen for IDE activator project, dose response (AID 588681)
T3 sequence (P14735 whole entry): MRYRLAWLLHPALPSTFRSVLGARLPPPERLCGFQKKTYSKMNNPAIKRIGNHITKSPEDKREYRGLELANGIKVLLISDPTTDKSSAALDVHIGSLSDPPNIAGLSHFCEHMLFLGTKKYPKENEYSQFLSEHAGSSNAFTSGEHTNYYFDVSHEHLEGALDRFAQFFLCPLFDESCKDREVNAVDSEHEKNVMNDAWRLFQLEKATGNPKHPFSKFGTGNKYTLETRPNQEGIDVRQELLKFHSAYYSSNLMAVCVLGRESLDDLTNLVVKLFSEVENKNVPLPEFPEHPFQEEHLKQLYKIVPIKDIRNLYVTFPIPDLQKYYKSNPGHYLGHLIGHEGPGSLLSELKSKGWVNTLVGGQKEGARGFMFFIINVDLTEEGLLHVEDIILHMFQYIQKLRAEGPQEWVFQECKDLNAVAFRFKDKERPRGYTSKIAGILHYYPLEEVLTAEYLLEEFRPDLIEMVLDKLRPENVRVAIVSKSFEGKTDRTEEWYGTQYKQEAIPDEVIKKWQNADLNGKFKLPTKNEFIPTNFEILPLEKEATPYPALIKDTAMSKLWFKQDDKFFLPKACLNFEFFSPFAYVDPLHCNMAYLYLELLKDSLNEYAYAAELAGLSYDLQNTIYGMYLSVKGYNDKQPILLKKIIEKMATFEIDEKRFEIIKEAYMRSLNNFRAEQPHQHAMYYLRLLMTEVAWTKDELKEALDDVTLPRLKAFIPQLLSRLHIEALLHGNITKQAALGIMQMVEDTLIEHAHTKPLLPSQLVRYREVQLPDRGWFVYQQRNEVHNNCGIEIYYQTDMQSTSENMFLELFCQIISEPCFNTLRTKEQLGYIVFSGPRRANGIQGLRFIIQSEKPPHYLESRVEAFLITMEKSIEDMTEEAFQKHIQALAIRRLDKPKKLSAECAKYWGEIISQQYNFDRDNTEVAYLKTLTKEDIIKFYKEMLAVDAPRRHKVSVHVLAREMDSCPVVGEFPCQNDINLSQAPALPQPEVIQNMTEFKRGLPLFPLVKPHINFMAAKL

Insulin-degrading enzyme [11] = target: T3, Insulin-degrading enzyme; test: cellular IDE activation of Abeta substrate cleavage – fluorescence polarization, HEK cells, dose response (AID 588439); assay type: functional, cell-based
HEK293 [12] = test: membrane integrity loss in HEK cells – cell-based, fluorescence, cytotoxicity control for IDE activator project, dose response (AID 588440); assay type: functional; conditions: Homo sapiens;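 also: cytotoxicity by LDH release measuring loss of membrane integrity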
HEK293 [13] = test: optical interference in Abeta FP readout, dose response, artefact control for IDE activator project, biochemical, fluorescence polarization (AID 588442); assay type: functional, cell-based; conditions: Homo sapiens
[14] = viability loss in HeLa cells – cytotoxicity control for MgcRacGAP inhibitor project, dose response (AID 624300); assay type: functional
[15] = target: T4, Rac GTPase-activating protein 1 (Homo sapiens, UniProt Q9H0H5); test: blockers of MgcRacGAP-driven Rac1 GTP hydrolysis – biochemical, ADP Hunter fluorescence, primary and confirmatory, confirmation (AID 624330); assay type: functional
T4 sequence (Q9H0H5 whole entry): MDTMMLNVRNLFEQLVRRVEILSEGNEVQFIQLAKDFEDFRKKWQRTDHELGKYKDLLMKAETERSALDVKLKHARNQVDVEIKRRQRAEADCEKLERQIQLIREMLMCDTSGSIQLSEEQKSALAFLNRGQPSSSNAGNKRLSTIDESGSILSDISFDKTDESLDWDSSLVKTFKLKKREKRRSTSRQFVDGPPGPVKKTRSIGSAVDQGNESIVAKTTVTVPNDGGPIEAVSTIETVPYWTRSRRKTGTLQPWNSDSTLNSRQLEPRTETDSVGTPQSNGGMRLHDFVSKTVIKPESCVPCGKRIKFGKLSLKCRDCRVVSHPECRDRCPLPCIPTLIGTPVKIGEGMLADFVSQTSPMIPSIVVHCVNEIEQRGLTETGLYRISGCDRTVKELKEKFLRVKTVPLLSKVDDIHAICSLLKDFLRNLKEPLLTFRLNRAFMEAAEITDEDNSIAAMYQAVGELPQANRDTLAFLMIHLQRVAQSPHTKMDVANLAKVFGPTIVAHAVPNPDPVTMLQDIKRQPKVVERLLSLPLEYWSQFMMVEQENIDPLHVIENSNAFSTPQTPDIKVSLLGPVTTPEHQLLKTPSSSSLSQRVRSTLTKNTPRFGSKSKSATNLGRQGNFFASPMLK

[16] = target: Arf-GAP with SH3 domain, ANK repeat and PH domain-containing protein 1 (Homo sapiens, UniProt Q9ULH1); assay type: functional;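 also: biochemical fluorescence polarization dose–response screen measuring inhibition of ASAP1; ASAP1 GAP domain stimulating GTP hydrolysis by truncated human ARF1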
Chain of Arf-GAP with SH3 domain, ANK repeat and PH domain-containing protein 1 (Q9ULH1 whole entry, the tested form may be a part): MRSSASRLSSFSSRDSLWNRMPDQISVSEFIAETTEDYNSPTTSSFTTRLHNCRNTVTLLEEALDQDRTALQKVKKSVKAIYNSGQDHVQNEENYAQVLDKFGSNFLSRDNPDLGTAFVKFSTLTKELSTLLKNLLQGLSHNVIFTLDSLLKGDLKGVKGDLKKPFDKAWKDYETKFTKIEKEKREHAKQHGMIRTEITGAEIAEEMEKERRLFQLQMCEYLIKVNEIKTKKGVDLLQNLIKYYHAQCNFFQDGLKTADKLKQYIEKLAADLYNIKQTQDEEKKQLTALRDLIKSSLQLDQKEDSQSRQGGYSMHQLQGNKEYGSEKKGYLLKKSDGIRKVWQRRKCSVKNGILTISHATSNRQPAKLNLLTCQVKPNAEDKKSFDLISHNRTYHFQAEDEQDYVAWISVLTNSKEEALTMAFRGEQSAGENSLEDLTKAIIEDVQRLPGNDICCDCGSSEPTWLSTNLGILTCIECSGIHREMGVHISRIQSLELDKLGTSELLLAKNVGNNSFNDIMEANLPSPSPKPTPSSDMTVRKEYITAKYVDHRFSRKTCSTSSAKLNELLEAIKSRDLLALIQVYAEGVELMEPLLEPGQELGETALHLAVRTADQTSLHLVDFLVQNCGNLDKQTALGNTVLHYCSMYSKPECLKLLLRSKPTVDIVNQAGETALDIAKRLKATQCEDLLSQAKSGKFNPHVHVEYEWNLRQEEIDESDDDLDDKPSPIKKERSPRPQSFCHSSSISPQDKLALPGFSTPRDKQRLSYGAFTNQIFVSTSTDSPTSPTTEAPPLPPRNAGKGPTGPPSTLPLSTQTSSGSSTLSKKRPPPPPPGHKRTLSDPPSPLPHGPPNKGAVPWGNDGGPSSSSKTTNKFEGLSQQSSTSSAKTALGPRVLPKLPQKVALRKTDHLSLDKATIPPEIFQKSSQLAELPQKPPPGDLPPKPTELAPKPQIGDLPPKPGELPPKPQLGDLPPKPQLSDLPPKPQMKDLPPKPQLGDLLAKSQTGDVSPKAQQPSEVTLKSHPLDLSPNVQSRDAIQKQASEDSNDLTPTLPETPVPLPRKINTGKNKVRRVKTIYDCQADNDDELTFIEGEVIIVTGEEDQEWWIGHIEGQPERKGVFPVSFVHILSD

[17] = target: T5, Histone-lysine N-methyltransferase NSD2 (Homo sapiens, UniProt O96028); assay type: biochemical
T5 sequence (O96028 whole entry): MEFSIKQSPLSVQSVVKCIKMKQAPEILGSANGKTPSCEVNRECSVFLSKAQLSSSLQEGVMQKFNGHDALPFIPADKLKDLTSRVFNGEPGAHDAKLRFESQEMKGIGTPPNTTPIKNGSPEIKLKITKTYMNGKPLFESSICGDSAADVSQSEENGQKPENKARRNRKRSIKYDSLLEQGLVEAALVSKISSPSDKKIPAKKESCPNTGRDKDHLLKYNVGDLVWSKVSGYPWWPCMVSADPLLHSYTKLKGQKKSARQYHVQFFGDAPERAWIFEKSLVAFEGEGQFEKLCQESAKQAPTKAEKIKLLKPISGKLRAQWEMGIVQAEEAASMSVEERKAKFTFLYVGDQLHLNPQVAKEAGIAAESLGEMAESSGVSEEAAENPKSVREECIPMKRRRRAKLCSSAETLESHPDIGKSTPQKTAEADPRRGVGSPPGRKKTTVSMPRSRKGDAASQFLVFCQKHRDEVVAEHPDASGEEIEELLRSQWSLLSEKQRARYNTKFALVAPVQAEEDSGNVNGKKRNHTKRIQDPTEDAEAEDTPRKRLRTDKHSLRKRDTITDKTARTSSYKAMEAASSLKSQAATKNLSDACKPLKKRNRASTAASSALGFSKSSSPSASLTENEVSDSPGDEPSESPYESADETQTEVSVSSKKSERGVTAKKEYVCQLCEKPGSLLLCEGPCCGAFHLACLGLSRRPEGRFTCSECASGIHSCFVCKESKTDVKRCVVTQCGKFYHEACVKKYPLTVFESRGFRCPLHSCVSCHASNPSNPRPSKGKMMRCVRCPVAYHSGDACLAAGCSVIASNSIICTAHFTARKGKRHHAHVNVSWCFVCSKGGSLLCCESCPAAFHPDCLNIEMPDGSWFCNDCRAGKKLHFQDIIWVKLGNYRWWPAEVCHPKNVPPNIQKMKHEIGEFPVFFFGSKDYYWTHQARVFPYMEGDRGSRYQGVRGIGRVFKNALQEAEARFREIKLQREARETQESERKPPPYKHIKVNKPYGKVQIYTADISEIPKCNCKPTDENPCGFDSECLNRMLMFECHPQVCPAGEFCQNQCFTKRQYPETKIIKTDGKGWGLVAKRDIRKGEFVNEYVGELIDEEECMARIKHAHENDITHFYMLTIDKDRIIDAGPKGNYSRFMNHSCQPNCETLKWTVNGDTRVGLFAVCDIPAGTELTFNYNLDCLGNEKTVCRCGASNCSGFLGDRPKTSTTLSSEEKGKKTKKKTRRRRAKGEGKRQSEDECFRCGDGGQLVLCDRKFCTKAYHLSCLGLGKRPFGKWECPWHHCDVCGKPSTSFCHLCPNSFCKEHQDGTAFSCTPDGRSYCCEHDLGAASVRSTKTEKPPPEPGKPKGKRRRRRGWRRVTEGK

[18] = HGIII-sPLA2 enzyme inhibition potency – biochemical, QFRET, IC50, dose response (AID 743457);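 also: green fluorescence rise as the enzyme cleaves BODIPY PC-A2 in liposomes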
[19] = target: T6, Low molecular weight phosphotyrosine protein phosphatase (Homo sapiens, UniProt P24666); assay type: functional; conditions: read-out: IC50_Mean
T6 sequence (P24666 whole entry): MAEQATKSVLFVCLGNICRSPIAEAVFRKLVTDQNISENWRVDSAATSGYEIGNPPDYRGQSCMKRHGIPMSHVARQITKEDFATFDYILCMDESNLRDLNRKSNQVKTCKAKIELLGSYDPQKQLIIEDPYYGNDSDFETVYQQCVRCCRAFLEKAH

[20] = target: T6, Low molecular weight phosphotyrosine protein phosphatase; assay type: functional; conditions: read-out: IC50_Mean; remark: listed apart in the source
[21] = target: Nuclear receptor subfamily 5 group A member 2 (Homo sapiens, UniProt O00482); assay type: functional, cell-based;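 also: HEK293T cells transfected with LRH-1 and a StAR promoter luciferase reporter; potency for inhibitors that lower LRH-1 driven reporter light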
Steroidogenic factor 1 = Steroidogenic factor 1 (Homo sapiens, UniProt Q13285); test: Counterscreen for inverse agonists of the liver receptor homolog-1 (LRH-1; NR5A2): Luminescence-based cell-based high throughput dose response assay to identify inverse agonists of the Steroidogenic Factor 1 Nuclear Receptor (SF1; NR5A1).; assay type: functional
[22] = nonselective StAR promoter luciferase inhibitors – cell-based, luminescence, luciferase reporter, counter-screen for LRH-1 inverse agonist project, dose response (AID 651969); assay type: functional
Genome polyprotein = Genome polyprotein (dengue virus type 2, UniProt P29990); test: flavivirus cap methylation enzyme inhibition – biochemical, confirmation dose response, primary screen (AID 588689); assay type: functional
[23] = target: T7, Polyadenylate-binding protein 1 (Homo sapiens, UniProt P11940); test: MLLE binding blockers, Cy5 peptide tracer – biochemical, fluorescence polarization, Cy5-PAM2 peptide, secondary, miRNA deadenylation inhibitor project, dose response (AID 602260); assay type: functional; conditions: read-out: IC50_Mean
T7 sequence (P11940 whole entry, the tested form may be a part): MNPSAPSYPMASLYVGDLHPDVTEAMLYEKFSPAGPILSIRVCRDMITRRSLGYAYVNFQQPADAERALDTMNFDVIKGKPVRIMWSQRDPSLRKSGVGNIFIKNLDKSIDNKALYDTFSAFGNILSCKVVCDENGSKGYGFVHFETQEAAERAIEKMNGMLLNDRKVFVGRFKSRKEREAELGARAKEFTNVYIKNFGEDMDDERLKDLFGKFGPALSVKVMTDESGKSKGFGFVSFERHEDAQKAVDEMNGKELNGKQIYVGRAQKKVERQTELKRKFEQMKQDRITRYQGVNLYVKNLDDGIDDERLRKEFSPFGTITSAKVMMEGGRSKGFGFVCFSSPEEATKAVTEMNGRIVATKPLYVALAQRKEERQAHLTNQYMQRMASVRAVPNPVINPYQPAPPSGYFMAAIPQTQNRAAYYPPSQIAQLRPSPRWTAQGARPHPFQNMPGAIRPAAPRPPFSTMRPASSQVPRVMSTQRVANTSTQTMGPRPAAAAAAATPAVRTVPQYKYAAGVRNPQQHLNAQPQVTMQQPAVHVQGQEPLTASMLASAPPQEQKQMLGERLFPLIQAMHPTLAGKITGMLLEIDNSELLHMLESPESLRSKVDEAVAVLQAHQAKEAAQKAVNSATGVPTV

[24] = target: T7, Polyadenylate-binding protein 1; test: MLLE domain peptide-binding blockers, IC50 – biochemical, fluorescence polarization, FITC-PAM2 peptide, dose response (AID 602259); assay type: functional; conditions: read-out: IC50_Mean
[25] = target: T8, Sentrin-specific protease 1 (Homo sapiens, UniProt Q9P0U3); test: SENP1 catalytic domain blockers, concentration series – biochemical, kinetic FRET, dose response (AID 651697); assay type: functional; conditions: read-out: IC50_Mean
T8 sequence (Q9P0U3 whole entry, the tested form may be a part): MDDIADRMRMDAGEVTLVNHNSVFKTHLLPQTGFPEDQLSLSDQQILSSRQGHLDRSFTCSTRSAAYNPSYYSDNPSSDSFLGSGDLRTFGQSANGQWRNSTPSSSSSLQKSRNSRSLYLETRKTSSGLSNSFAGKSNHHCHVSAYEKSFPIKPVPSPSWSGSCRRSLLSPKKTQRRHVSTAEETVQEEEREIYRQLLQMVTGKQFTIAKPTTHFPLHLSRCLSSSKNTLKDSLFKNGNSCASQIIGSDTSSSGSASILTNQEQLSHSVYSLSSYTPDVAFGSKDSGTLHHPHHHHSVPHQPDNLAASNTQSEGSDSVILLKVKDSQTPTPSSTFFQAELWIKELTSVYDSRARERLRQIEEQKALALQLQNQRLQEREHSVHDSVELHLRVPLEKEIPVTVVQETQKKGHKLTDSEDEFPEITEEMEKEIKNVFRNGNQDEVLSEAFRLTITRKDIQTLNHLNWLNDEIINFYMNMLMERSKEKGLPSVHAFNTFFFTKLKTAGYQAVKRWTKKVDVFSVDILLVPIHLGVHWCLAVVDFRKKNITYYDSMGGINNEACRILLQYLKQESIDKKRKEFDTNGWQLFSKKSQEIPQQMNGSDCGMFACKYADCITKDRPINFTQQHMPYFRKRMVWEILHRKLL

[26] = target: T8, Sentrin-specific protease 1; test: Dose response confirmation of small molecule inhibitors of the catalytic domain of the SUMO protease, SENP1 in a FRET assay.; assay type: functional; conditions: read-out: IC50_Mean
cells = assay type: functional, cell-based
[27] = target: Nuclear receptor subfamily 0 group B member 1 (Homo sapiens, UniProt P51843); assay type: functional, cell-based;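 also: HEK293T cells transfected with SF-1 and DAX-1 plus StAR promoter luciferase reporter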
Chain of Nuclear receptor subfamily 0 group B member 1 (P51843 whole entry): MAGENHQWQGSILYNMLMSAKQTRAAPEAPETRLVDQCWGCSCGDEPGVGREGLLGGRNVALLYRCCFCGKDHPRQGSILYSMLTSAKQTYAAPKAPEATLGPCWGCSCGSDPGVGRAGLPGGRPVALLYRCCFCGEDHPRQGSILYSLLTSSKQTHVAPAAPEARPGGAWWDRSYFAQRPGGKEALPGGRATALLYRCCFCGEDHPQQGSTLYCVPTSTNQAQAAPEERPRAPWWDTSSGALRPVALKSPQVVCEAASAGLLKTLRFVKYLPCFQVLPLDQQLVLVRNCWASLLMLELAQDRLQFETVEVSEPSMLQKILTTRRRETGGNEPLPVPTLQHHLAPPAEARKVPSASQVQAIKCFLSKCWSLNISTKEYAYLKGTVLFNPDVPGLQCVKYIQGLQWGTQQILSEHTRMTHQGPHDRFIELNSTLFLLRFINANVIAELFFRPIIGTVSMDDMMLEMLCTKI

SMILES: Cc1cccc(NC(=O)Cn2c(=O)oc3ccccc32)c1
- AC50 [1]: 5.47 µM (active)
- AC50 (Cytochrome P450 3A4): 25.1 µM (inconclusive)

SMILES: O=C(Nc1ccc(S(=O)(=O)Nc2nccs2)cc1)/C(=C/c1ccccc1Cl)NC(=O)c1ccccc1
- IC50 [2]: 2.73 µM (active)
- IC50 [3]: 6.5 µM (active)
- IC50 [4]: 22.8 µM (active)

SMILES: CN(Cc1ccccc1)S(=O)(=O)c1ccc(NS(=O)(=O)Cc2ccccc2)cc1
- EC50 [5]: 3.46 µM (active)
- EC50 [6]: 1.25 µM (active)
- EC50 [7]: 0.0609 µM (active)

SMILES: N#CC(C#N)=C1C=C2C=C(N3CCOCC3)CCC2CC1 (stereo unspecified)
- IC50 (Beta-lactamase [8]): 6.86 µM (active)
- IC50 (Beta-lactamase [9]): 1.49 µM (active)
- EC50 (Insulin-degrading enzyme [10]): > 54.7 µM (inactive)
- EC50 (Insulin-degrading enzyme [11]): > 54.7 µM (inactive)
- IC50 (HEK293 [12]): > 89.1 µM (inactive)
- EC50 (HEK293 [13]): > 54.7 µM (inactive)

SMILES: CN(C)c1ccc(/C=C/c2cc[n+](C)c3ccccc23)cc1.[O-][Cl+3]([O-])([O-])[O-]
- CC50 [14]: 41.1 µM (active)
- IC50 [15]: 36.1 µM (active)
- IC50 [16]: 21.4 µM (inactive)
- AC50 [17]: 11.7 µM (active)
- IC50 [18]: 28.6 µM (inactive)

SMILES: Nc1ncc2c(n1)CC(c1ccco1)CC2=O (stereo unspecified)
- IC50 [19]: 40.5 µM (inactive)
- IC50 [20]: 56.8 µM (inactive)

SMILES: NC(=O)C1CCN(C(=O)COc2ccc3c4c(c(=O)oc3c2)CCC4)CC1
- IC50 [21]: 35.9 µM (inactive)
- IC50 (Steroidogenic factor 1): 35.9 µM (inactive)
- IC50 [22]: 35.9 µM (inactive)

SMILES: Nc1nc(O)cc(N=Nc2ccc(O)cc2)n1
- IC50 (Genome polyprotein): 26.7 µM (active)
- IC50 [23]: > 66 µM (inactive)
- IC50 [24]: 43.8 µM (inactive)
- IC50 [25]: 11.6 µM (active)
- IC50 [26]: 15.4 µM (active)

SMILES: O=C1c2ccccc2C(=O)N1CCOc1ccccc1Br
- IC50 (cells): > 67.5 µM (inactive)
- IC50 [27]: > 67.5 µM (inactive)
